Earlier results as cited in patent publication US20070212498A1, “Optical film, antireflection film, polarizing plate, display apparatus and method for manufacturing optical film” (FUJIFILM Corporation, priority 2006, published 2007).

Settings: pKa of the conjugate acid, values in an aqueous solution (Kagaku Binran Kiso Hen)

pKa	SMILES
7.7	CCC1CNCCO1 (centres unmarked) [b-13, 2-Ethyl morpholine]
7.8	CC1CNCCO1 (centres unmarked) [b-14, 2-Methyl morpholine]
